Test results from patent publication US20200009121A1, “Purpose for Soothing Brain Disorders of Patients from Drug Detoxification Using Biperiden HCL” (priority 2018, published 2020).
Structures can show the parent of a compound that is named as a salt.

Tested on: brain disorders of patients from drug detoxification
Experiment: Biperiden Hcl given to patients after block-out of poisoning pathway (drug detoxification) treatment
Format: in vivo
Details: dose 10 mg/ml
Description: A Biperiden Hcl 10 medicine of the disclosure is a cure of Parkinson's disease and can reduce effect of acetylcholine of Extrapyramidal Symptoms (EPS) on it to further decrease excitement of central nervous. […] With reference to FIG. 1, a Biperiden Hcl 10 medicine is applied after patients are treated with block-out of poisoning pathway, wherein poisoning pathway treatment 20 can adapt intravenous drip prescription 30 disclosed in U.S. utility patent application Ser. No.10/004,781 owned by the inventor(s) and purpose treatment thereof, providing the intravenous drip prescription 30 to patients. The intravenous drip prescription 30 comprises a plurality of ingredients consisting of Cerebrolysin, Piracetam, Cimetidine, Scopolamine Butylbromide, Nefopam, B. C Complex, Vitamin B1, Ascorbic acid, Ketorolac, Guronsan, Hyoscien Butylbromide, and Sukerin. After a patient is dealt with poisoning pathway treatment 20, a dose (10 mg/ml) of Biperiden Hcl 10 is provided to the patient to sooth brain disorder of the patient from the poisoning pathway treatment 20 of the patient, capable of rapidly recovering consciousness and normal physiological state.

OC(CCN1CCCCC1)(c1ccccc1)C1CC2C=CC1C2 (stereo not shown) [Biperiden Hcl]
soothing brain disorders of patients and recovering consciousness and normal physiological state: excellent effect of soothing brain disorders of patients and recovering consciousness and normal physiological state
